Reference: patent publication US20210369691A1, “METHODS AND COMPOSITIONS FOR IMPROVING BONE MARROW HEMATOPOIETIC FUNCTIONS” (Sun Yat-Sen University, priority 2018, published 2021)

Columns and labels:
Assay type in all cases: in vivo, mice
white blood cells [1] = assay: White blood cell recovery in peripheral blood after 5FU; conditions: after 5FU 150 mg/kg once; ABC294640 10 mg/kg every other day; days 0, 1, 5, 11; vs solvent control; FIG. 5
Method: Preparation of the SphK2 inhibitor was as described in Example 4. Twelve 8-week-old C57 mice purchased from Laboratory Animal Center, Sun Yat-sen University were selected and divided evenly into two groups. The mice were intraperitoneally injected with 5FU at a dose of 150 mg/kg once. The injection of the inhibitor ABC294640 and the solvent control solution was as described in Example 4, which started from the day after 5-fluorouracil injection, followed by injections once every other day, at a dose of 10 mg/kg, until the end of the experiment. Periphery blood (PB) of each mouse was separately collected to determine white blood cell (WBC) counts 0, 1, 5 and 11 days after 5-FU administration. T-test analysis was carried out using Graphpad6.0, and differences were considered statistically significant when P<0.05.

white blood cells [2] = assay: White blood cell recovery in peripheral blood after X-ray radiation; conditions: after X-ray 450 cGy; ABC294640 10 mg/kg i.p. every other day; days 0, 1, 7, 14; vs solvent control; FIG. 7
Method: (§1) Preparation of SphK2 inhibitors was as described in Example 4. Twelve 8-week-old C57 mice purchased from Laboratory Animal Center, Sun Yat-sen University were selected and divided evenly into two groups. The mice were treated with X-ray radiation at a dose of 450 cGy. The injection of the inhibitor ABC294640 and the solvent control solution was as described in Example 4. Intraperitoneal injection of the inhibitor or the solvent control solution started from the day after the X-ray radiation, followed by injections once every other day, at a dose of 10 mg/kg, until the end of the experiment. Periphery blood (PB) of each mouse was separately collected to determine white blood cell (WBC) counts 0, 1, 7 and 14 days after X-ray radiation. T-test analysis was carried out using Graphpad6.0, and differences were considered statistically significant when P<0.05.

platelets [3] = assay: Platelet recovery in peripheral blood after X-ray radiation; conditions: after X-ray 450 cGy; ABC294640 10 mg/kg i.p. every other day; days 0, 1, 7, 14; vs solvent control; **P<0.01; FIG. 8
Method: as §1
The experiment was conducted as described in Example 7. Periphery blood (PB) of each mouse was separately collected to determine platelets (PLT) counts 0, 1, 7 and 14 days after X-ray radiation. T-test analysis was carried out using Graphpad6.0, and differences were considered statistically significant when P<0.05.

hematopoietic stem cells = assay: Hematopoietic stem cell number after bone marrow transplantation; conditions: 35 days after bone marrow transplantation (900 cGy); ABC294640 10 mg/kg i.p. every other day; **P<0.01; FIG. 10
Method: Twenty-five 8-week-old C57 mice (purchased from Laboratory Animal Center, Sun Yat-sen University) were selected and kept in a specific pathogen free (SPF) environment. 5 mice were randomly selected and sacrificed by cervical dislocation. Femurs and tibias were taken and the bone marrow was obtained from the bone marrow cavity with an 1 ml syringe. Bone marrow was dispersed to form a single cell suspension and lysed with red blood cell lysis buffer for 2 min to remove red blood cells, followed by filtering through a 70 μm filter screen to obtain a single cell suspension. The other 20 mice were treated with X-ray radiation at a dose of 900 cGy, and were injected with 400,000 of the prepared bone marrow single cell suspension via tail vein, respectively. Then, the recipient mice were divided evenly into 2 groups, and mice of the ABC294640 treatment group were subjected to intraperitoneal injection of ABC294640 every other day. Mice in the control group was injected with a solvent solution control (1:1 of physiological saline: PEG400) solution. […] Statistical quantification was performed to determine the number of hematopoietic stem cells using the molecular marker system Lin-Sca-1+c-Kit+CD150+CD48− in combination with flow cytometry. […]

platelets [4] = assay: Platelet recovery after bone marrow transplantation; conditions: 7-35 days after bone marrow transplantation; ABC294640 10 mg/kg every other day; vs solvent control
Method: Twenty-five 8-week-old C57 mice (purchased from Laboratory Animal Center, Sun Yat-sen University) were selected and kept in a specific pathogen free (SPF) environment. 5 mice were randomly selected and sacrificed by cervical dislocation. Femurs and tibias were taken and the bone marrow was obtained from the bone marrow cavity with an 1 ml syringe. Bone marrow was dispersed to form a single cell suspension and lysed with red blood cell lysis buffer for 2 min to remove red blood cells, followed by filtering through a 70 μm filter screen to obtain a single cell suspension. The other 20 mice were treated with X-ray radiation at a dose of 900 cGy, and were injected with 400,000 of the prepared bone marrow single cell suspension via tail vein, respectively. Then, the recipient mice were divided evenly into 2 groups, and mice of the ABC294640 treatment group were subjected to intraperitoneal injection of ABC294640 every other day. Mice in the control group was injected with a solvent solution control (1:1 of physiological saline: PEG400) solution. ABC294640 was purchased from Selleck and dissolved in dimethyl sulfoxide (DMSO), and diluted with a mixture solution of polyethylene glycol 400 (PEG400) and physiological saline (1:1) to be administered at a dose of 10 mg/kg.
Preparation of SphK2 inhibitors was as described in Example 10. […]

O=C(NCc1ccncc1)C12CC3CC(C1)CC(c1ccc(Cl)cc1)(C3)C2 [ABC294640, 3-(4-chloro-phenyl)-adamantane-1-carboxylic acid (pyridin-4-ylmethyl)-amide]
number of white blood cells from the peripheral blood (white blood cells [1]): significantly increased
number of white blood cells from the peripheral blood (white blood cells [2]): significantly increased
number of platelets in the peripheral blood (platelets [3]): significantly increased
number of hematopoietic stem cells in bone marrow (hematopoietic stem cells): increased remarkably
number of platelets in the peripheral blood (platelets [4]): significantly (*P<0.05, and ***P<0.001) increased
